# Experimental data from US9643957B2, “Heterocyclic compounds having cholesterol 24-hydroxylase activity” (TAKEDA PHARMACEUTICAL COMPANY LIMITED, priority 2012, dated 2017).
# Target: T1, human CH24H (Homo sapiens, UniProt Q9Y6A2)
# T1 construct: Using Full-Length Mammalian Gene Collection No. 4819975 (Invitrogen) as a template; made in house; host or cells: FreeStyle 293-F cells, transient transfection with pcDNA3.1(+)/hCH24H; lysate supernatant, not purified
# Assay: Measurement of CH24H inhibitory activity (24-HC produced from [14C] cholesterol by human CH24H lysate)
# Type: biochemical
# Details: 1 μM test compound, [14C] cholesterol 15 μM, 37° C. for 5 hr, read-out: Inhibitory Rate in 1 μM (%)
# Description: The expression of human CH24H was performed using FreeStyle 293 Expression System (Invitrogen). […] After transfection, the cells were cultured at 37° C., 8% CO2 with shaking at 125 rpm for 2 days. The cells were collected by centrifugation, and suspended in a suspension buffer (100 mM potassium phosphate (pH 7.4), 0.1 mM EDTA, 1 mM DTT, 20% Glycerol). The suspended product was disrupted by a polytron homogenizer (manufactured by Kinematica), and centrifuged at 9000×g for 10 min, and the supernatant was collected. The collected supernatant was cryopreserved (−80° C.) as a human CH24H lysate standard product.
# For the measurement of CH24H inhibitory activity, using the human CH24H lysate prepared in Experimental Example 2, the amount of 24-HC produced from cholesterol by catalytic activity of CH24H was measured in the presence of a test compound, and compared with that measured in the absence of the test compound. That is, a test compound solution at various concentrations was mixed with a reaction buffer (50 mM potassium phosphate containing 0.1% BSA and Complete, EDTA-free, pH 7.4) and human CH24H lysate. Then, [^14C] cholesterol (53 mCi/mmol specific activity, 15 μM) was added, and CH24H reaction was performed at 37° C. for 5 hr. After completion of the reaction, a quenching solution consisting of chloroform/methanol/distilled water (2:2:1 v/v) was added, and the resulting 24-HC was extracted by shaking. The extract was applied to silica gel thin layer chromatography (ethyl acetate:toluene=4:6), and the obtained ^14C-24HC fraction was measured with BAS2500 (Fujifilm Corporation).
# The inhibitory rate (%) was calculated from the ratio of radioactivity in the presence of a test compound relative to the radioactivity in the absence of the test compound.
# T1 sequence (Q9Y6A2 whole entry): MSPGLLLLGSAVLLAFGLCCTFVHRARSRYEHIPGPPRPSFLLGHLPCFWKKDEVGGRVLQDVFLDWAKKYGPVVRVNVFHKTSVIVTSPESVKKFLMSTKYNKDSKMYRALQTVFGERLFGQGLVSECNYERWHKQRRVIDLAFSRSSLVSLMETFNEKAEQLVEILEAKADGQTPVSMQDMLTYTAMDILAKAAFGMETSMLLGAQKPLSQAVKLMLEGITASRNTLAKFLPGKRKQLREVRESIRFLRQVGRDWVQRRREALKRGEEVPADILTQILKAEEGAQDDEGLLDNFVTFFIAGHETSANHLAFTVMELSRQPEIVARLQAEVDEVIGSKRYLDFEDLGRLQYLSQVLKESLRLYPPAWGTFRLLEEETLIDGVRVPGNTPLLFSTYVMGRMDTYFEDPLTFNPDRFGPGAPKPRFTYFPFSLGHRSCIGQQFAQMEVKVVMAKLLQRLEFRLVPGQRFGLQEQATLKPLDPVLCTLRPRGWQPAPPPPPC
row,SMILES,inhibition at 1 µM
1,"O=C(C1CCN(c2cncnc2-c2ccc(F)cc2)CC1)N1CC[C@@H](F)C1 [Example 287, (1-(4-(4-fluorophenyl)pyrimidin-5-yl)piperidin-4-yl)((3R)-3-fluoropyrrolidin-1-yl)methanone]",89%
2,"CN1CCC2(CCN(c3cncnc3-c3ccc(F)cc3)CC2)C1=O [Example 222, 8-(4-(4-fluorophenyl)pyrimidin-5-yl)-2-methyl-2,8-diazaspiro[4.5]decan-1-one]",92%
3,"CO[C@@H]1C[C@H](C#N)N(C(=O)C2CCN(c3cnccc3-n3cc(C)cn3)CC2)C1 [Example 138, (2R,4R)-4-methoxy-1-((1-(4-(4-methyl-1H-pyrazol-1-yl)pyridin-3-yl)piperidin-4-yl)carbonyl)pyrrolidine-2-carbonitrile]",93%
4,"CN(C(=O)C1CCN(c2cncnc2-c2ccc(F)cc2)CC1)[C@H]1CCOC1 [Example 309, 1-(4-(4-fluorophenyl)pyrimidin-5-yl)-N-methyl-N-((3S)-tetrahydrofuran-3-yl)piperidine-4-carboxamide]",85%
5,"O=C(NC1CC1)C1CCN(c2cncnc2-c2ccc(F)cc2)CC1 [Example 193, N-cyclopropyl-1-(4-(4-fluorophenyl)pyrimidin-5-yl)piperidine-4-carboxamide]",90%
6,"CO[C@@H]1CCN(C(=O)C2CCN(c3cnccc3-n3cc(Cl)cn3)CC2)C1 [Example 300, (1-(4-(4-chloro-1H-pyrazol-1-yl)pyridin-3-yl)piperidin-4-yl)((3R)-3-methoxypyrrolidin-1-yl)methanone]",83%
7,"CN(C)C(=O)C1CCN(c2cnccc2-n2cc(C#N)cn2)CC1 [Example 83, 1-(4-(4-cyano-1H-pyrazol-1-yl)pyridin-3-yl)-N,N-dimethylpiperidine-4-carboxamide]",74%
8,"Cc1cnn(-c2ccncc2N2CCC(C(=O)N(CCF)[C@H]3CCOC3)CC2)c1 [Example 312, N-(2-fluoroethyl)-1-(4-(4-methyl-1H-pyrazol-1-yl)pyridin-3-yl)-N-((3S)-tetrahydrofuran-3-yl)piperidine-4-carboxamide]",71%
9,"O=C(C1CCN(c2cncnc2-c2ccc(F)cc2)CC1)N1CC(F)C1 [Example 278, (3-fluoroazetidin-1-yl)(1-(4-(4-fluorophenyl)pyrimidin-5-yl)piperidin-4-yl)methanone]",75%
10,"Cc1cnn(-c2ccncc2N2CCC(C(=O)Nc3ccccc3)CC2)c1 [Example 73, 1-(4-(4-methyl-1H-pyrazol-1-yl)pyridin-3-yl)-N-phenylpiperidine-4-carboxamide]",97%
11,"CN(C(=O)C1CCN(c2cncnc2-c2ccc(F)cc2)CC1)C1CCOCC1 [Example 288, 1-(4-(4-fluorophenyl)pyrimidin-5-yl)-N-methyl-N-(tetrahydro-2H-pyran-4-yl)piperidine-4-carboxamide]",84%
12,"O=C(C1CCN(c2cnccc2-c2ccccn2)CC1)N1CC(F)(F)C1 [Example 213, (1-(2,4′-bipyridin-3′-yl)piperidin-4-yl) (3,3-difluoroazetidin-1-yl)methanone]",93%
13,"CN(C(=O)C1CCN(c2cncnc2-c2ccc(F)cc2)CC1)C1CC1 [Example 277, N-cyclopropyl-1-(4-(4-fluorophenyl)pyrimidin-5-yl)-N-methylpiperidine-4-carboxamide]",94%
14,"CO[C@@H]1CCN(C(=O)C2CCN(c3cnccc3-n3cc(C)cn3)CC2)C1 [Example 302, ((3R)-3-methoxypyrrolidin-1-yl)(1-(4-(4-methyl-1H-pyrazol-1-yl)pyridin-3-yl)piperidin-4-yl)methanone]",87%
15,"Cc1cnn(-c2ccncc2N2CCC(C(=O)N(C)[C@H]3CCOC3)CC2)c1 [Example 305, N-methyl-1-(4-(4-methyl-1H-pyrazol-1-yl)pyridin-3-yl)-N-((3S)-tetrahydrofuran-3-yl)piperidine-4-carboxamide]",85%
16,"Cc1cnn(-c2ccncc2N2CCC(C(=O)N3CC(F)C3)CC2)c1 [Example 280, (3-fluoroazetidin-1-yl)(1-(4-(4-methyl-1H-pyrazol-1-yl)pyridin-3-yl)piperidin-4-yl)methanone]",78%
17,"Cc1cnc(-c2ccncc2N2CCC(C(=O)N(C)C)CC2)o1 [Example 2, N,N-dimethyl-1-(4-(5-methyl-1,3-oxazol-2-yl)pyridin-3-yl)piperidine-4-carboxamide]",80%

row,SMILES,inhibition at 1 µM
1,"O=C(C1CCN(c2cnccc2-n2cc(Cl)cn2)CC1)N1CC[C@H](F)C1 [Example 284, (1-(4-(4-chloro-1H-pyrazol-1-yl)pyridin-3-yl)piperidin-4-yl)((3S)-3-fluoropyrrolidin-1-yl)methanone]",80%
2,"Cc1cnn(-c2ccncc2N2CCC(C(=O)N(C)[C@@H]3CCOC3)CC2)c1 [Example 306, N-methyl-1-(4-(4-methyl-1H-pyrazol-1-yl)pyridin-3-yl)-N-((3R)-tetrahydrofuran-3-yl)piperidine-4-carboxamide]",85%
3,"CN(C)C(=O)C1CCN(c2cnccc2-c2nc3ccccc3s2)CC1 [Example 21, 1-(4-(1,3-benzothiazol-2-yl)pyridin-3-yl)-N,N-dimethylpiperidine-4-carboxamide]",85%
4,"C[C@H]1CN(c2cncnc2-c2ccccc2)CCN1C(=O)CC1CC1 [Example 170, 2-cyclopropyl-1-((2S)-2-methyl-4-(4-phenylpyrimidin-5-yl)piperazin-1-yl)ethanone]",86%
5,"O=C(C1CCN(c2cnccc2-n2cc(Br)cn2)CC1)N1CC(F)C1 [Example 319, (1-(4-(4-bromo-1H-pyrazol-1-yl)pyridin-3-yl)piperidin-4-yl) (3-fluoroazetidin-1-yl)methanone]",96%
6,"Cc1cnn(-c2ccncc2N2CCN(C(=O)N(C)Cc3ccc(F)cc3)CC2)c1 [Example 297, N-(4-fluorobenzyl)-N-methyl-4-(4-(4-methyl-1H-pyrazol-1-yl)pyridin-3-yl)piperazine-1-carboxamide]",84%
7,"CN(C(=O)C1CCN(c2cnccc2-n2cc(Cl)cn2)CC1)C1CC1 [Example 58, 1-(4-(4-chloro-1H-pyrazol-1-yl)pyridin-3-yl)-N-cyclopropyl-N-methylpiperidine-4-carboxamide]",96%
8,"O=C(C1CC1)N1CCN(c2cnccc2-c2ccccc2)CC1 [Example 152, cyclopropyl(4-(4-phenylpyridin-3-yl)piperazin-1-yl)methanone]",90%
9,"CC1CCCN1C(=O)C1CCN(c2cnccc2-n2cc(Cl)cn2)CC1 (stereo not shown) [Example 25, (1-(4-(4-chloro-1H-pyrazol-1-yl)pyridin-3-yl)piperidin-4-yl)(2-methylpyrrolidin-1-yl)methanone]",97%
10,"O=C(OCc1ccccc1)N1CCN(c2cncnc2-c2ccccc2)CC1 [Example 169, benzyl 4-(4-phenylpyrimidin-5-yl)piperazine-1-carboxylate]",97%
11,"Cc1nnc(-c2ccncc2N2CCC(C(=O)N3CCC[C@]3(C)C#N)CC2)s1 [Example 128, (2R)-2-methyl-1-((1-(4-(5-methyl-1,3,4-thiadiazol-2-yl)pyridin-3-yl)piperidin-4-yl)carbonyl)pyrrolidine-2-carbonitrile]",97%
12,"O=C(CCn1ncc2ccccc21)N1CCN(c2cnccc2-c2ccccc2)CC1 [Example 183, 3-(1H-indazol-1-yl)-1-(4-(4-phenylpyridin-3-yl)piperazin-1-yl)propan-1-one]",92%
13,"N#C[C@H]1CCCN1C(=O)N1CCN(c2cncnc2-c2ccc(F)cc2)CC1 [Example 198, (2R)-1-((4-(4-(4-fluorophenyl)pyrimidin-5-yl)piperazin-1-yl)carbonyl)pyrrolidine-2-carbonitrile]",90%
14,"Cc1cnn(-c2ccncc2N2CCC(C(=O)N(CCF)C3CCOCC3)CC2)c1 [Example 311, N-(2-fluoroethyl)-1-(4-(4-methyl-1H-pyrazol-1-yl)pyridin-3-yl)-N-(tetrahydro-2H-pyran-4-yl)piperidine-4-carboxamide]",79%
15,"CN(C(=O)C1CCN(c2cnccc2-n2cc(Cl)cn2)CC1)[C@@H]1CCOC1 [Example 308, 1-(4-(4-chloro-1H-pyrazol-1-yl)pyridin-3-yl)-N-methyl-N-((3R)-tetrahydrofuran-3-yl)piperidine-4-carboxamide]",83%
16,"CO[C@H]1CCN(C(=O)C2CCN(c3cnccc3-n3cc(Cl)cn3)CC2)C1 [Example 299, (1-(4-(4-chloro-1H-pyrazol-1-yl)pyridin-3-yl)piperidin-4-yl)((3S)-3-methoxypyrrolidin-1-yl)methanone]",84%
17,"Cc1cnn(-c2ccncc2N2CCC(C(=O)N3CC[C@H](F)C3)CC2)c1 [Example 282, ((3S)-3-fluoropyrrolidin-1-yl)(1-(4-(4-methyl-1H-pyrazol-1-yl)pyridin-3-yl)piperidin-4-yl)methanone]",83%
